Results on 63 molecules are retold here after patent publication US8604016B2, “Heterocyclic inhibitors of glutaminase” (Calithera Biosciences Inc., priority 2011, dated 2013).

pIC50: −log10 of the molar value. Bounds are passed on as bounds.

In this experiment the target is recombinant form of Glutaminase 1 (GAC) (Homo sapiens, UniProt O94925). In words: Recombinant Enzyme Assay (GAC coupled to GDH, NADH absorbance, no preincubation). The class given is biochemical. The note with it: no preincubation; read-out: GAC Delta N2 IC50 no preinc. In a few lines:
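GAC (4 nM) in Tris-HCl pH 8.0 with 150 mM K2HPO4, EDTA, BSA, DTT, plus 4 units/ml GDH and 4 mM ADP, without preincubation. Absorbance at 340 nm was read kinetically for 15 min at 20° C. Slopes (mAU/min) were compared with DMSO-only and control-compound wells on the same plate.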
For the molecule `COc1ccc(OC)c(CC(=O)Nc2nnc(CCCCc3nnc(NC(=O)Cc4ccccc4)s3)s2)c1` [Compound 271], the pIC50 is 7.00.
Next, `O=C(CO)Nc1nnc(CCSCCc2nnc(NC(=O)CO)s2)s1` [Compound 253]: 4.68; `O=C(Cc1ccccc1Br)Nc1nnc(CCCCc2nnc(NC(=O)Cc3ccccc3Br)s2)s1` [Compound 282]: 7.09.
Next, `O=C(Cc1ccccc1Br)Nc1nnc(CCSCCc2nnc(NC(=O)Cc3ccccc3Br)s2)s1` [Compound 283]: 6.18; `O=C(Cc1cccc(-c2cccc(F)c2)c1)Nc1nnc(CCCCc2nnc(NC(=O)Cc3cccc(-c4cccc(F)c4)c3)s2)s1` [Compound 331]: < 4.70; `O=C(Cc1cccc(-n2cccc2)c1)Nc1nnc(CCCCc2nnc(NC(=O)Cc3cccc(-n4cccc4)c3)s2)s1` [Compound 330]: < 4.70.
As to `O=C(Cc1cccc(F)c1)Nc1nnc(CCSCCc2nnc(NC(=O)Cc3cccc(F)c3)s2)s1` [Compound 102], the pIC50 was 6.62.
As for `O=C(Cc1ccccc1)Nc1nnc(C[C@@H]2C[C@H]2Cc2nnc(NC(=O)Cc3ccccc3)s2)s1` [Compound 1035], the pIC50 is < 4.70.
As to `CC(=O)Nc1nnc(CCSCCc2nnc(NC(=O)Cc3ccccc3)s2)s1` [Compound 25], the pIC50 is 5.92.
Next, `NC(C(=O)Nc1nnc(CCSCCc2nnc(NC(=O)C(N)C3CCCC3)s2)s1)C1CCCC1` (stereo not drawn) [Compound 125]: < 4.70; `O=C(Nc1nnc(CCSCCc2nnc(NC(=O)c3coc4ccccc34)s2)s1)c1coc2ccccc12` [Compound 218]: < 4.70; `O=C(CN1CCOCC1)Nc1nnc(CCSCCc2nnc(NC(=O)CN3CCOCC3)s2)s1` [Compound 12]: < 4.30.
Consider `O=C(Cc1csc2ccccc12)Nc1nnc(CCSCCc2nnc(NC(=O)Cc3csc4ccccc34)s2)s1` [Compound 212], for which the pIC50 was < 4.70.
For the molecule `O=C(Cc1ccc(Cl)s1)Nc1nnc(CCSCCc2nnc(NC(=O)Cc3ccc(Cl)s3)s2)s1` [Compound 206], the pIC50 was < 4.70.
On to `COC(=O)Nc1nnc(CCCCc2nnc(NC(=O)Cc3ccccc3)s2)s1` [Compound 387], for which the pIC50 was 5.92.
Regarding `O=C(Cc1ccsc1)Nc1nnc(CCSCCc2nnc(NC(=O)Cc3ccsc3)s2)s1` [Compound 84], the pIC50 was 6.64.
In the case of `O=C(Cc1ccsc1)Nc1nnc(CCCCc2nnc(NC(=O)Cc3ccsc3)s2)s1` [Compound 88], the pIC50 was 6.70.
The figure for `O=C(Nc1nnc(CCCCc2nnc(NC(=O)C3Cc4cc(Cl)ccc4O3)s2)s1)C1Cc2cc(Cl)ccc2O1` (stereo not drawn) [Compound 120] is 5.74; for `Nc1nnc(CCCCc2nnc(NC(=O)C(CO)c3ccccc3)s2)s1` (stereo not drawn) [Compound 227] it is 5.00; for `O=C(Cc1c(F)cccc1F)Nc1nnc(CCSCCc2nnc(NC(=O)Cc3c(F)cccc3F)s2)s1` [Compound 298] it is 6.14.
As to `NS(=O)(=O)c1ccc(CC(=O)Nc2nnc(CCCCc3nnc(NC(=O)Cc4ccc(S(N)(=O)=O)cc4)s3)s2)cc1` [Compound 198], the pIC50 is 6.74.
Take `O=C(Cc1ccccc1)Nc1nnc(CCCCc2nnc(NC(=O)[C@H]3CCCC[C@@H]3C(=O)c3ccccc3)s2)s1` [Compound 290]: the pIC50 was 6.10.
Next, `O=C(Cc1ccccc1)Nc1ccc(CCCCc2ccc(NC(=O)Cc3ccccc3)nn2)nn1` [Compound 1038]: 7.10.
The figure for `CC(C(=O)Nc1nnc(CCSCCc2nnc(NC(=O)C(C)c3ccccc3Cl)s2)s1)c1ccccc1Cl` (stereo not drawn) [Compound 261] is 6.15.
For the molecule `C[C@H](N)C(=O)Nc1nnc(CCSCCc2nnc(NC(=O)[C@H](C)N)s2)s1` [Compound 74], the pIC50 is < 4.30.
For the molecule `O=C(Nc1nnc(CCSCCc2nnc(NC(=O)C3CCCO3)s2)s1)C1CCCO1` (stereo not drawn) [Compound 39], the pIC50 is 4.59.
Consider `O=C(Cc1ccccc1)Nc1nnc(CCCCc2nnc(NC(=O)[C@@H]3CCCC[C@H]3C(O)c3ccccc3)s2)s1` (stereo partly drawn) [Compound 304], for which the pIC50 is 5.92.
Consider `CC(C)(C)OC(=O)N1CCCC(CC(=O)Nc2nnc(CCCCc3nnc(NC(=O)CC4CCCN(C(=O)OC(C)(C)C)C4)s3)s2)C1` (stereo not drawn) [Compound 115], for which the pIC50 was 6.21.
As to `O=C(Cc1ccccc1)Nc1nnc(CCCCc2nnc(NC(=O)C(CO)c3ccccc3)s2)s1` (stereo not drawn) [Compound 316], the pIC50 was 6.72.
`CC(O)(C(=O)Nc1nnc(CCSCCc2nnc(N)s2)s1)C(F)(F)F` (stereo not drawn) [Compound 56]: the pIC50 was < 4.30.
In the case of `O=C(Cc1ccccc1)Nc1nnc(CCCCc2nnc(NC(=O)C(O)(CO)c3ccccc3)s2)s1` (stereo not drawn) [Compound 280], the pIC50 was 6.54.
Next, `Cc1cc(C)n(CC(=O)Nc2nnc(CCSCCc3nnc(NC(=O)Cn4nc(C)cc4C)s3)s2)n1` [Compound 97]: 6.25; `O=C(Cn1cccn1)Nc1nnc(CCSCCc2nnc(NC(=O)Cn3cccn3)s2)s1` [Compound 57]: 4.40; `CC(C)(C)OC(=O)N[C@@H](C(=O)Nc1nnc(CCSCCc2nnc(NC(=O)[C@H](NC(=O)OC(C)(C)C)c3ccccc3)s2)s1)c1ccccc1` [Compound 46]: < 4.30.
On to `O=C(Cc1ccccc1)Nc1ccc(CCCCc2nnc(NC(=O)C(OC(=O)CCN3CCOCC3)c3ccccc3)s2)nn1` (stereo not drawn) [Compound 334], for which the pIC50 was 6.19.
The figure for `NC(C(=O)Nc1nnc(CCCCc2nnc(NC(=O)C(N)C3CCCC3)s2)s1)C1CCCC1` (stereo not drawn) [Compound 131] is 4.72.
As to `O=C(CN1C(=O)OC[C@H]1c1ccccc1)Nc1nnc(CCSCCc2nnc(NC(=O)CN3C(=O)OC[C@H]3c3ccccc3)s2)s1` [Compound 243], the pIC50 was 5.57.
As to `COC(C(=O)Nc1nnc(CCSCCc2nnc(NC(=O)C(OC)c3ccccc3)s2)s1)c1ccccc1` (stereo not drawn) [Compound 67], the pIC50 is 5.52.
Consider `NCC(C(=O)Nc1nnc(CCCCc2nnc(NC(=O)C(CN)c3ccccc3)s2)s1)c1ccccc1` (stereo not drawn) [Compound 231], for which the pIC50 was 5.13.
As for `CC(C)[C@H](N)C(=O)Nc1nnc(CCCCc2nnc(NC(=O)[C@@H](N)C(C)C)s2)s1` [Compound 73], the pIC50 is < 4.30.
Regarding `O=C(CC1CCCC1)Nc1nnc(CCCCc2nnc(NC(=O)CC3CCCC3)s2)s1` [Compound 61], the pIC50 is < 4.30.
Turning to `O=C(Cc1cccc(-c2cccnc2)c1)Nc1nnc(CCCCc2nnc(NC(=O)Cc3cccc(-c4cccnc4)c3)s2)s1` [Compound 312], the pIC50 is < 4.70.
As for `O=C(Cc1cccc(OCCN2CCOCC2)c1)Nc1nnc(CCSCc2nnc(NC(=O)Cc3cccc(OCCN4CCOCC4)c3)s2)s1` [Compound 267], the pIC50 was 6.21.
Next, `O=C(Nc1nnc(CCCCc2nnc(NC(=O)C3CC4CCC3C4)s2)s1)C1CC2CCC1C2` (stereo not drawn) [Compound 55]: < 4.30; `Cc1ccccc1C(C)C(=O)Nc1nnc(CCSCCc2nnc(NC(=O)C(C)c3ccccc3C)s2)s1` (stereo not drawn) [Compound 262]: 6.44; `O=C(Nc1nnc(CCCCc2nnc(NC(=O)C3Cc4cc(Br)ccc4O3)s2)s1)C1Cc2cc(Br)ccc2O1` (stereo not drawn) [Compound 122]: 5.46.
For `COc1ccccc1C(CO)C(=O)Nc1nnc(CCSCCc2nnc(NC(=O)C(CO)c3ccccc3OC)s2)s1` (stereo not drawn) [Compound 245], the pIC50 was 6.28.
On to `O=C(Nc1nnc(CCCCc2nnc(NC(=O)C(O)c3ccccc3Br)s2)s1)C(O)c1ccccc1Br` (stereo not drawn) [Compound 287], for which the pIC50 was 6.24.
Next, `COC(=O)C(C(=O)Nc1nnc(CCSCCc2nnc(NC(=O)C(C(=O)OC)c3ccccc3)s2)s1)c1ccccc1` (stereo not drawn) [Compound 234]: 5.70.
`CCCC(=O)OCN(C(=O)Cc1ccccc1)c1nnc(CCSCCc2nnc(NC(=O)Cc3ccccc3)s2)s1` [Compound 7]: the pIC50 was < 4.30.
Consider `COc1cccc(CC(=O)Nc2nnc(CCSCCc3nnc(NC(=O)Cc4cccc(OC)c4OC)s3)s2)c1OC` [Compound 259], for which the pIC50 is 6.64.
As to `CC(CO)(CO)C(=O)Nc1nnc(CCCCc2nnc(NC(=O)C(C)(CO)CO)s2)s1` [Compound 151], the pIC50 is 4.85.
`CC(C)(C)OC(=O)N1CCC(CC(=O)Nc2nnc(CCCCc3nnc(NC(=O)CC4CCN(C(=O)OC(C)(C)C)CC4)s3)s2)CC1` [Compound 114]: the pIC50 was 6.22.
Regarding `CN(C)CC(=O)Nc1nnc(CCCCc2nnc(NC(=O)Cc3ccccc3)s2)s1` [Compound 297], the pIC50 was 5.19.
Next, `O=C(OCC(C(=O)Nc1nnc(CCCCc2nnc(NC(=O)C(COC(=O)C3CCNCC3)c3ccccc3)s2)s1)c1ccccc1)C1CCNCC1` (stereo not drawn) [Compound 302]: 5.15; `CC(CO)(CO)C(=O)Nc1nnc(CCCCc2nnc(NC(=O)Cc3cccc(F)c3)s2)s1` [Compound 152, N,N′-(5-(4-(5-(2-(3-fluorophenyl)acetamido)-1,3,4-thiadiazol-2-yl)butyl)-1,3,4-thiadiazol-2-yl)-3-hydroxy-2-(hydroxymethyl)-2-methylpropanamide]: 6.14; `CCOc1ccccc1CC(=O)Nc1nnc(CCCCc2nnc(NC(=O)Cc3ccccc3OCC)s2)s1` [Compound 300]: 6.80.
For `O=C(Nc1nnc(CCCCc2nnc(NC(=O)c3ccnn3-c3ccccc3)s2)s1)c1ccnn1-c1ccccc1` [Compound 229], the pIC50 is 5.41.
The figure for `O=C(Cc1ccccc1F)Nc1nnc(CCSCCc2nnc(NC(=O)Cc3ccccc3F)s2)s1` [Compound 294] is 6.70; for `CC(=O)OCC(C(=O)Nc1nnc(CCSCCc2nnc(NC(=O)C(COC(C)=O)c3ccccc3)s2)s1)c1ccccc1` (stereo not drawn) [Compound 14] it is 5.55.
With `O=C(Nc1nnc(CCSCCc2nnc(NC(=O)c3cc4ccccc4o3)s2)s1)c1cc2ccccc2o1` [Compound 215], the pIC50 is 4.80.
With `O=C(Nc1nnc(CCCCc2nnc(NC(=O)C(O)c3cccc(F)c3F)s2)s1)C(O)c1cccc(F)c1F` (stereo not drawn) [Compound 211], the pIC50 is 5.92.
The figure for `O=C(CCc1ccccc1)Nc1nnc(CCCCc2nnc(NC(=O)CCc3ccccc3)s2)s1` [Compound 106] is < 4.70.
